Results taken from ChEMBL document CHEMBL1201862, “PubChem BioAssay data set” (2004).
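Dose response: 5 concentrations. Exposure: 48 h. Format: 96-well plates. Endpoint: linear interpolation; highest concentration if not reached. GI50 = concentration required for 50% inhibition of growth.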 Activity calls are given as the source filed them. Rule as the data show it: active = GI50 up to about 1.1 µM and inactive = higher.

Tests used:
Assay in all cases: NCI-60 cell line screen, 48 h
COLO 205 = tested on: COLO 205
DLD-1 = tested on: DLD-1
HL-60 = tested on: HL-60
HOP-62 = tested on: HOP-62
HT-29 = tested on: HT-29
K562 = tested on: K562
LXFL 529 = tested on: LXFL 529
OVCAR-4 = tested on: OVCAR-4
OVCAR-5 = tested on: OVCAR-5
RXF 393 = tested on: RXF 393
SF-268 = tested on: SF-268
SF-539 = tested on: SF-539
SK-MEL-28 = tested on: SK-MEL-28
SR = tested on: SR
UACC-62 = tested on: UACC-62
XF498 = tested on: XF498
A498 = tested on: A498
DU-145 = tested on: DU-145
OVCAR-3 = tested on: OVCAR-3
UACC-257 = tested on: UACC-257

Measured: GI50

Cc1cc(C)nc(NS(=O)(=O)c2ccc(NC(=O)c3cccn4c(=O)c5ccccc5nc34)cc2)n1
inactive: COLO 205 40.6 µM | DLD-1 31.9 µM | HL-60 21.5 µM | HOP-62 > 100 µM | HT-29 40.2 µM | K562 32.1 µM | LXFL 529 29.3 µM | OVCAR-4 27.9 µM | OVCAR-5 > 100 µM | RXF 393 23.9 µM | SF-268 51.1 µM | SF-539 38.5 µM | SK-MEL-28 38.5 µM | SR 24 µM | UACC-62 20.5 µM | XF498 54.2 µM

CCCCN1CN2C(=O)C(C(=O)OCC)C(=O)c3sc4nc(SC)nc1c4c32 (centres undefined)
inactive: A498 1.53 µM | COLO 205 18.7 µM | DU-145 19 µM | HL-60 46.6 µM | HOP-62 15.7 µM | HT-29 19.8 µM | K562 35.5 µM | OVCAR-3 19 µM | OVCAR-4 18.8 µM | OVCAR-5 18.6 µM | RXF 393 20.5 µM | SF-268 19.9 µM | SF-539 18.5 µM | SK-MEL-28 19.8 µM | SR 33.1 µM | UACC-257 19 µM | UACC-62 17.7 µM

CCOC(=O)C1=C(C)N2CCCOC2(C)C(C(=O)OC)C1c1cccc([N+](=O)[O-])c1 (centres undefined)
inactive: COLO 205 > 100 µM | HL-60 32.1 µM | HOP-62 99.1 µM | HT-29 > 100 µM | K562 55.2 µM | LXFL 529 45.7 µM | OVCAR-3 42.9 µM | RXF 393 > 100 µM | SF-268 > 100 µM | SF-539 > 100 µM | SK-MEL-28 > 100 µM | SR 35.2 µM | UACC-257 86.5 µM | UACC-62 45.6 µM

CCOC(=O)c1ccc(C)c(/N=N/N(C)C)c1
inactive: A498 > 100 µM | COLO 205 > 100 µM | DLD-1 > 100 µM | HL-60 > 100 µM | HOP-62 > 100 µM | HT-29 > 100 µM | K562 > 100 µM | OVCAR-3 > 100 µM | OVCAR-4 > 100 µM | OVCAR-5 > 100 µM | RXF 393 > 100 µM | SF-268 82.8 µM | SF-539 > 100 µM | SK-MEL-28 > 100 µM | SR 93.1 µM | UACC-257 > 100 µM | UACC-62 > 100 µM | XF498 > 100 µM

CC(C)NC(=O)OCc1c(CO)c2c(n1C)-c1ccccc1CC2
inactive: A498 55.5 µM | COLO 205 21 µM | DLD-1 20.7 µM | HL-60 16.4 µM | HOP-62 > 58.3 µM | HT-29 24.5 µM | K562 15.2 µM | OVCAR-3 22.4 µM | OVCAR-4 26.3 µM | OVCAR-5 80.7 µM | RXF 393 23.5 µM | SF-268 36.1 µM | SF-539 23.6 µM | SK-MEL-28 25.9 µM | UACC-257 31.3 µM | UACC-62 18.3 µM | XF498 14.2 µM

COc1ccc(CN/C=N/C(C#N)=C(\N)C#N)cc1OC
inactive: A498 54.8 µM | COLO 205 > 100 µM | DU-145 > 100 µM | HL-60 > 100 µM | HOP-62 > 100 µM | HT-29 > 100 µM | K562 > 100 µM | OVCAR-3 > 100 µM | OVCAR-4 > 100 µM | OVCAR-5 > 100 µM | SF-268 > 100 µM | SF-539 > 100 µM | SK-MEL-28 > 100 µM | SR > 100 µM | UACC-257 > 100 µM | UACC-62 > 100 µM

CN(C)CC(C)(C)/C(=N\Nc1ccccc1)c1ccccc1
inactive: A498 82.8 µM | COLO 205 64.3 µM | DLD-1 30.4 µM | HL-60 21 µM | HOP-62 45.2 µM | HT-29 35.9 µM | K562 28.1 µM | LXFL 529 18.7 µM | OVCAR-3 54.8 µM | OVCAR-4 45.4 µM | OVCAR-5 46.6 µM | RXF 393 37.3 µM | SF-268 31.8 µM | SF-539 24.6 µM | SK-MEL-28 39.9 µM | UACC-257 51.6 µM | UACC-62 14.8 µM

Cc1cccc2ns[s+]c12
inactive: A498 > 100 µM | COLO 205 > 100 µM | DLD-1 > 100 µM | HL-60 36.3 µM | HOP-62 > 100 µM | HT-29 43.1 µM | K562 29.9 µM | LXFL 529 37.8 µM | OVCAR-3 > 100 µM | OVCAR-4 > 100 µM | OVCAR-5 > 100 µM | SF-268 82 µM | SF-539 50.7 µM | SK-MEL-28 > 100 µM | UACC-257 > 100 µM | UACC-62 38.5 µM

CCN1CCCC(NCc2c3ccccc3c(CNC3CCCN(CC)C3)c3ccccc23)C1 (centres undefined)
inactive: A498 12.6 µM | COLO 205 1.99 µM | DLD-1 12.8 µM | HL-60 7.03 µM | HOP-62 19.6 µM | HT-29 2.6 µM | K562 7.85 µM | OVCAR-3 3.8 µM | OVCAR-4 5.2 µM | OVCAR-5 5.96 µM | RXF 393 3.48 µM | SF-268 7.8 µM | SF-539 14.9 µM | SK-MEL-28 11.8 µM | UACC-257 10.9 µM | UACC-62 12.9 µM | XF498 20.5 µM

CCCCS(=N)(=O)CC[C@H](N)C(=O)O (some centres undefined) [BUTHIONINE SULFOXIME]
inactive: A498 4820 µM | COLO 205 > 5000 µM | DLD-1 > 5000 µM | DU-145 > 5000 µM | HL-60 665 µM | HOP-62 > 5000 µM | HT-29 > 5000 µM | K562 > 5000 µM | OVCAR-3 > 4130 µM | OVCAR-4 2290 µM | OVCAR-5 > 5000 µM | RXF 393 > 5000 µM | SF-268 4260 µM | SF-539 4910 µM | SK-MEL-28 > 5000 µM | SR 286 µM | UACC-257 > 5000 µM | UACC-62 > 5000 µM | XF498 476 µM

CCCCCCCCCCCCCCCCSCC(COC)COP(=O)([O-])OCC[N+](C)(C)C (centres undefined) [ILMOFOSINE]
inactive: A498 6.31 µM | COLO 205 1.97 µM | DLD-1 3.03 µM | HL-60 1.55 µM | HOP-62 3.43 µM | HT-29 3.09 µM | K562 13.6 µM | OVCAR-3 5.38 µM | OVCAR-4 4.06 µM | OVCAR-5 13.3 µM | RXF 393 3.52 µM | SF-268 7.57 µM | SF-539 16.1 µM | SK-MEL-28 15.5 µM | UACC-257 14.3 µM | UACC-62 4.92 µM | XF498 6.3 µM
